Assay results taken from patent publication US20230203098A1, “HUMAN TRANSFERRIN RECEPTOR BINDING PEPTIDE” (priority 2020, published 2023).
Where two headings read alike, the source gives them in different places. Blank lines part the entries; values can stand above or below the compound they belong to. *1 amine or outer side, *2 acyl side, *3 side chain or, on linkers, in order; H or OH if unused. Where a SMILES comes first, the peptide text is derived from it. Bridges are numbered along the chain shown (N, C = ends). Side-chain parts run from the residue outwards. [ ]: non-standard residue; d: D form. The star is where a group is joined. X2 = O=C(O)c1cc(C(=O)*)ccc1-c1c2ccc(=O)cc-2oc2cc(O)ccc12; PEG12 = NCCOCCOCCOCCOCCOCCOCCOCCOCCOCCOCCOCCOCCC(=O)O; NMePhe(3-Cl) = CN[C@@H](Cc1cccc(Cl)c1)C(=O)O; NMeW = CN[C@@H](Cc1c[nH]c2ccccc12)C(=O)O; NMeY = CN[C@@H](Cc1ccc(O)cc1)C(=O)O; NMeF = CN[C@@H](Cc1ccccc1)C(=O)O; Piperazinyl(4-Me) = CN1CCN(*)CC1; PEG4 = NCCOCCOCCOCCOCCC(=O)O; dOrn = NCCC[C@@H](N)C(=O)O; Aib = CC(C)(N)C(=O)O; CO = O=C([*:1])[*:2]

Molecular target: transferrin receptor (hTfR) (Homo sapiens, UniProt P02786)
Test: Intermolecular interaction evaluation test between transferrin receptor (hTfR) and peptide by surface plasmon resonance (SPR)
Assay type: binding
In short: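 Receptor was Ni-captured and EDC/NHS-fixed on an NTA chip; running buffer HEPES pH 8.0 with NaCl, Tween 20, BSA and 1.0% DMSO.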

[1] = hTfR binding by SPR, hTfR No. 894 variant peptides, linker-added peptides and payload conjugates (Table 2), read-out: KD value obtained from the SPR measurement
[2] = binding to hTfR by SPR, Table 2 peptides, read-out: KD value (SPR) class
[3] = SPR, hTfR No. 894 variants with PEG12c linker (Table 2), read-out: KD
[4] = SPR, linker and payload (FITC, VivoTag) conjugates, read-out: KD
[5] = surface plasmon resonance, peptide vs hTfR, read-out: KD value, hTfR binding by SPR (class symbol)

Chain of transferrin receptor (hTfR) (P02786 whole entry): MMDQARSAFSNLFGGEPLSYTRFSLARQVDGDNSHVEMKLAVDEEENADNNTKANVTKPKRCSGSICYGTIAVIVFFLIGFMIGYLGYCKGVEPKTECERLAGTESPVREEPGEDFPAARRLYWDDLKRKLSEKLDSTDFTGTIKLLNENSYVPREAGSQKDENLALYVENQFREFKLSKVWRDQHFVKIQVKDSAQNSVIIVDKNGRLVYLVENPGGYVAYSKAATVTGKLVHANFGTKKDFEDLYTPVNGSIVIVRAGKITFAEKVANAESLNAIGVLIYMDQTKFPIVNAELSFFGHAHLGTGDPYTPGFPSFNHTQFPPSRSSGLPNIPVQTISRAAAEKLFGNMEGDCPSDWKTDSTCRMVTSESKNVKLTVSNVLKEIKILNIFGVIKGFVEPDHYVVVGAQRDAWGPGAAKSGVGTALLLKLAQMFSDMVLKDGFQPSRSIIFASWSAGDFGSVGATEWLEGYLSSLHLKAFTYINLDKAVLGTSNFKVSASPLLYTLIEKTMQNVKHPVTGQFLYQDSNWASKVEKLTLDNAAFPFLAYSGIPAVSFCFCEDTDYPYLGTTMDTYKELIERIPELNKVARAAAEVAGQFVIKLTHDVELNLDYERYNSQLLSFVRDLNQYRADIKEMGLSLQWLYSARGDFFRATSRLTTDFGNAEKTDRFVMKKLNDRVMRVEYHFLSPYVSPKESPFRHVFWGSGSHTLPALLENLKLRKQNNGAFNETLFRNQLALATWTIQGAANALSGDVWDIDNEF

Compound: CC[C@H](C)[C@@H]1NC(=O)[C@H](Cc2ccc(O)cc2)NC(=O)[C@H](Cc2ccc(O)cc2)NC(=O)[C@H](CC(N)=O)NC(=O)[C@H](Cc2c[nH]c3ccccc23)N(C)C(=O)[C@H](C(C)C)NC(=O)[C@H](Cc2ccccc2)N(C)C(=O)[C@H](C(C)C)NC(=O)[C@H](C)NC(=O)CSC[C@@H](C(=O)NCCOCCOCCOCCOCCOCCOCCOCCOCCC(=O)N[C@@H](CCCCNC(=O)C2CCC(CN3C(=O)C=CC3=O)CC2)C(N)=O)NC(=O)[C@H](Cc2ccc(O)cc2)N(C)C(=O)[C@H](Cc2ccc(O)cc2)NC(=O)[C@H](CCCNC(=N)N)NC(=O)[C@H](CCCNC(=N)N)NC(=O)[C@H]([C@@H](C)CC)NC1=O (some centres unmarked) [compound 185]
Kd [1]: 1 to 100 nM

Compound: CC[C@H](C)[C@@H]1NC(=O)[C@H](Cc2ccc(O)cc2)NC(=O)[C@H](Cc2ccc(O)cc2)NC(=O)[C@H](CC(N)=O)NC(=O)[C@H](Cc2c[nH]c3ccccc23)NC(=O)[C@H](C(C)C)NC(=O)[C@H](Cc2ccccc2)NC(=O)[C@H](C(C)C)NC(=O)[C@H](C)NC(=O)CSC[C@@H](C(N)=O)NC(=O)[C@H](Cc2ccc(O)cc2)N(C)C(=O)[C@H](CCCNC(=N)N)NC(=O)[C@H](CCCNC(=N)N)NC(=O)[C@H](CCCNC(=N)N)NC(=O)[C@H]([C@@H](C)CC)NC1=O [compound 260]
Kd [2]: 1 to 100 nM

Compound: CC[C@H](C)[C@@H]1NC(=O)[C@H](Cc2ccc(O)cc2)NC(=O)[C@H](Cc2ccc(O)cc2)NC(=O)[C@H](CC(N)=O)NC(=O)[C@H](Cc2c[nH]c3ccccc23)NC(=O)[C@H](C(C)C)NC(=O)[C@H](Cc2ccccc2)N(C)C(=O)[C@H](C(C)C)NC(=O)[C@H](C)NC(=O)CSC[C@@H](C(=O)NCCOCCOCCOCCOCCOCCOCCOCCOCCOCCOCCOCCOCCC(N)=O)NC(=O)[C@H](C)NC(=O)[C@H](Cc2ccc(O)cc2)NC(=O)[C@H](CCCNC(=N)N)NC(=O)[C@H](CCCNC(=N)N)NC(=O)[C@H]([C@@H](C)CC)NC1=O [compound 117] ({CH2CO}-AV[NMeF]VWNYYIIRRYAC[PEG12]-NH2; thioether N-15)
Kd [3]: 1 to 100 nM

Compound: CC[C@H](C)[C@@H]1NC(=O)[C@H](Cc2ccc(O)cc2)NC(=O)[C@H](Cc2ccc(O)cc2)NC(=O)[C@H](CC(N)=O)NC(=O)[C@H](Cc2c[nH]c3ccccc23)N(C)C(=O)[C@H](C(C)C)NC(=O)[C@H](Cc2ccccc2)N(C)C(=O)[C@H](C(C)C)NC(=O)[C@H](C)NC(=O)CSC[C@@H](C(=O)NCC(=O)NCC(=O)N[C@@H](CCCNC(=N)N)C(=O)NCC(=O)N[C@@H](CCCNC(=N)N)C(=O)N[C@@H](CO)C(=O)N[C@@H](CCCCNC(=O)C2CCC(CN3C(=O)C=CC3=O)CC2)C(N)=O)NC(=O)[C@H](Cc2ccc(O)cc2)N(C)C(=O)[C@H](Cc2ccc(O)cc2)NC(=O)[C@H](CCCNC(=N)N)NC(=O)[C@H](CCCNC(=N)N)NC(=O)[C@H]([C@@H](C)CC)NC1=O (some centres unmarked) [compound 198]
Kd [1]: 1 to 100 nM

Compound: CC[C@H](C)[C@@H]1NC(=O)[C@H](Cc2ccc(O)cc2)NC(=O)[C@H](Cc2ccc(O)cc2)NC(=O)[C@H](CC(N)=O)NC(=O)[C@H](Cc2c[nH]c3ccccc23)NC(=O)[C@H](C(C)C)NC(=O)[C@H](Cc2ccccc2)N(C)C(=O)[C@H](C(C)C)NC(=O)[C@H](C)NC(=O)CSC[C@@H](C(=O)NCCOCCOCCOCCOCCC(=O)NCCOCCOCCOCCOCCC(=O)N[C@@H](CCCCNC(=O)C2CCC(CN3C(=O)C=CC3=O)CC2)C(N)=O)NC(=O)[C@H](Cc2ccc(O)cc2)N(C)C(=O)[C@H](Cc2ccc(O)cc2)NC(=O)[C@H](CCCNC(=N)N)NC(=O)[C@H](CCCNC(=N)N)NC(=O)[C@H]([C@@H](C)CC)NC1=O (some centres unmarked) [compound 181]
Kd [1]: < 1 nM

Compound: CC[C@H](C)[C@@H]1NC(=O)[C@H](Cc2ccc(O)cc2)NC(=O)[C@H](Cc2ccc(O)cc2)NC(=O)[C@H](CC(N)=O)NC(=O)[C@H](Cc2c[nH]c3ccccc23)NC(=O)[C@H](C(C)C)NC(=O)[C@H](Cc2ccccc2)NC(=O)[C@H](C(C)C)NC(=O)[C@H](C)NC(=O)CSC[C@@H](C(=O)NCCOCCOCCOCCOCCOCCOCCOCCOCCOCCOCCOCCOCCC(=O)N[C@@H](CCCCNC(=O)c2ccc(-c3c4ccc(=O)cc-4oc4cc(O)ccc34)c(C(=O)O)c2)C(N)=O)NC(=O)[C@H](CC(=O)O)NC(=O)[C@H](CCCNC(=N)N)NC(=O)[C@@H]2CCCN2C(=O)[C@H](C(C)C)NC1=O [compound 209] ({CH2CO}-AVFVWNYYIVPRDC[PEG12]K(X2)-NH2; thioether N-14)
Kd (SPR, peptides, linker-added peptides and FITC conjugates, Patent ID 203-230, read-out: KD): 1 to 100 nM

The remaining lines, values ahead:

Kd [4]: 1 to 100 nM
Compound: CC[C@H](C)[C@@H]1NC(=O)[C@H](Cc2ccc(O)cc2)NC(=O)[C@H](Cc2ccc(O)cc2)NC(=O)[C@H](CC(N)=O)NC(=O)[C@H](Cc2c[nH]c3ccccc23)NC(=O)[C@H](C(C)C)NC(=O)[C@H](Cc2ccccc2)NC(=O)[C@H](C(C)C)NC(=O)[C@H](C)NC(=O)CSC[C@H](C(=O)NCCOCCOCCOCCOCCC(=O)N[C@@H](CNC(=O)c2ccc(-c3c4ccc(=O)cc-4oc4cc(O)ccc34)c(C(=O)O)c2)C(N)=O)NC(=O)[C@H](Cc2ccc(O)cc2)N(C)C(=O)[C@H](Cc2ccc(O)cc2)NC(=O)[C@H](CCCNC(=N)N)NC(=O)[C@H](CCCNC(=N)N)NC(=O)[C@H]([C@@H](C)CC)NC1=O [compound 160]

Kd [5]: > 1000 nM
Compound: CC[C@H](C)[C@@H]1NC(=O)[C@H](Cc2ccc(OC)cc2)NC(=O)[C@H](Cc2ccc(O)cc2)NC(=O)[C@H](CC(N)=O)NC(=O)[C@H](Cc2c[nH]c3ccccc23)NC(=O)[C@H](C(C)C)NC(=O)[C@H](Cc2cccc(Cl)c2)N(C)C(=O)[C@H](C(C)C)NC(=O)[C@H](C)NC(=O)CSC[C@@H](C(=O)NCCOCCOCCOCCOCCC(N)=O)NC(=O)[C@H](Cc2ccc(O)cc2)N(C)C(=O)[C@H](Cc2ccccc2)NC(=O)[C@@H](CCCNC(=N)N)NC(=O)C(C)(C)NC(=O)[C@H]([C@@H](C)CC)NC1=O [compound 310] ({CH2CO}-AV[NMePhe(3-Cl)]VWNYY(Me)II[Aib][dR]F[NMeY]C[PEG4]-NH2; thioether N-15)

Kd (SPR, hTfR, class symbols A-D, read-out: KD): 1 to 100 nM
Compound: CC[C@H](C)[C@@H]1NC(=O)[C@H](Cc2ccc(OC)cc2)NC(=O)[C@H](Cc2ccc(O)cc2)NC(=O)[C@H](CC(N)=O)NC(=O)[C@H](Cc2c[nH]c3ccccc23)N(C)C(=O)[C@H](C(C)C)NC(=O)[C@H](Cc2cccc(Cl)c2)N(C)C(=O)[C@H](C(C)C)NC(=O)[C@H](C)NC(=O)CSC[C@@H](C(N)=O)NC(=O)[C@H](Cc2ccc(O)cc2)N(C)C(=O)[C@H](Cc2cccc(C(=O)O)c2)NC(=O)[C@@H](CCCNC(=N)N)NC(=O)[C@H](CCCNC(=N)N)NC(=O)[C@H]([C@@H](C)CC)NC1=O [compound 461]

Kd [5]: 1 to 100 nM
Compound: CC[C@H](C)[C@@H]1NC(=O)[C@H](Cc2ccc(OC)cc2)NC(=O)[C@H](Cc2ccc(O)cc2)NC(=O)[C@H](CC(N)=O)NC(=O)[C@H](Cc2c[nH]c3ccccc23)N(C)C(=O)[C@H](C(C)C)NC(=O)[C@H](Cc2cccc(Cl)c2)N(C)C(=O)[C@H](C(C)C)NC(=O)[C@H](C)NC(=O)CSC[C@@H](C(=O)NCC(=O)NCC(=O)NCC(=O)NCC(=O)N[C@@H](CO)C(=O)N[C@@H](CO)C(=O)N[C@@H](CS)C(N)=O)NC(=O)[C@H](Cc2ccc(O)cc2)N(C)C(=O)[C@H](Cc2ccccc2)NC(=O)[C@@H](CCCNC(=N)N)NC(=O)[C@H](CCCNC(=N)N)NC(=O)[C@H](CCCCN)NC1=O [compound 344]

Kd [3]: 1 to 100 nM
Compound: CC[C@H](C)[C@@H]1NC(=O)[C@H](Cc2ccc(O)cc2)NC(=O)[C@H](Cc2ccc(O)cc2)NC(=O)[C@H](CC(N)=O)NC(=O)[C@H](Cc2c[nH]c3ccccc23)NC(=O)[C@H](C(C)C)NC(=O)[C@H](Cc2ccccc2)N(C)C(=O)[C@H](C(C)C)NC(=O)[C@H](C)NC(=O)CSC[C@@H](C(=O)NCCOCCOCCOCCOCCOCCOCCOCCOCCOCCOCCOCCOCCC(N)=O)NC(=O)[C@H](CCCNC(=N)N)NC(=O)[C@H](Cc2ccc(O)cc2)NC(=O)[C@H](CCCNC(=N)N)NC(=O)[C@H](CCCNC(=N)N)NC(=O)[C@H]([C@@H](C)CC)NC1=O [compound 127]

Kd [2]: > 1000 nM
Compound: CC[C@H](C)[C@@H]1NC(=O)[C@H](Cc2ccc(O)cc2)NC(=O)[C@H](Cc2ccc(O)cc2)NC(=O)[C@H](CC(N)=O)NC(=O)[C@H](Cc2c[nH]c3ccccc23)NC(=O)[C@H](C(C)C)NC(=O)[C@H](Cc2ccccc2)N(C)C(=O)[C@H](C(C)C)NC(=O)[C@H](C)NC(=O)CSC[C@@H](C(=O)NCCOCCOCCOCCOCCC(N)=O)NC(=O)[C@H](Cc2ccc(O)cc2)N(C)C(=O)[C@H](Cc2ccc(O)cc2)NC(=O)[C@H](CCCCNC(=O)N2CCN(C)CC2)NC(=O)C(C)(C)NC(=O)[C@H]([C@@H](C)CC)NC1=O [compound 290] ({CH2CO}-AV[NMeF]VWNYYII[Aib]K([CO-Piperazinyl(4-Me)])Y[NMeY]C[PEG4]-NH2; thioether N-15)

Kd [5]: 1 to 100 nM
Compound: CC[C@H](C)[C@@H]1NC(=O)[C@H](Cc2ccc(OC)cc2)NC(=O)[C@H](Cc2ccc(O)cc2)NC(=O)[C@H](CC(N)=O)NC(=O)[C@H](Cc2c[nH]c3ccccc23)N(C)C(=O)[C@H](C(C)C)NC(=O)[C@H](Cc2cccc(Cl)c2)N(C)C(=O)[C@H](C(C)C)NC(=O)[C@H](C)NC(=O)CSC[C@@H](C(=O)NCCOCCOCCOCCOCCC(N)=O)NC(=O)[C@H](Cc2ccc(O)cc2)N(C)C(=O)[C@H](Cc2ccccc2)NC(=O)[C@@H](CCCNC(=N)N)NC(=O)[C@H](CCCNC(=N)N)NC(=O)[C@@H](CCCN)NC1=O [compound 338] ({CH2CO}-AV[NMePhe(3-Cl)]V[NMeW]NYY(Me)I[dOrn]R[dR]F[NMeY]C[PEG4]-NH2; thioether N-15)

Kd [4]: < 1 nM
Compound: CC[C@H](C)[C@@H]1NC(=O)[C@H](Cc2ccc(O)cc2)NC(=O)[C@H](Cc2ccc(O)cc2)NC(=O)[C@H](CC(N)=O)NC(=O)[C@H](Cc2c[nH]c3ccccc23)NC(=O)[C@H](C(C)C)NC(=O)[C@H](Cc2ccccc2)NC(=O)[C@H](C(C)C)NC(=O)[C@H](C)NC(=O)CSC[C@@H](C(=O)NCCOCCOCCOCCOCCOCCOCCOCCOCCOCCOCCOCCOCCC(=O)N[C@@H](CCCCNC(=O)c2ccc(-c3c4ccc(=O)cc-4oc4cc(O)ccc34)c(C(=O)O)c2)C(N)=O)NC(=O)[C@H](Cc2ccc(O)cc2)N(C)C(=O)[C@H](Cc2ccc(O)cc2)NC(=O)[C@H](CCCNC(=N)N)NC(=O)[C@H](CCCNC(=N)N)NC(=O)[C@H]([C@@H](C)CC)NC1=O [compound 147]
